# Literature values as cited in patent publication US20230190684A1, “METHODS OF TREATING COVID-19 WITH A NICLOSAMIDE COMPOUND” (priority 2020, published 2023).
# Counter-ions that a name gives are not always drawn.
# Key:
# [1] = in vivo
# [2] = patients treated with niclosamide; literature (McEvoy 1995)
Compound,"dissolves in distilled water (distilled water, 20° C.) [mg/L]",systemic bioavailability [1],solubility in acetone (acetone),"solubility in ether, ethanol and chloroform (ether, ethanol and chloroform)","water solubility (water, 20° C.) [µg/mL]","Less frequently reported AEs: rash, oral irritation, fever, rectal bleeding, weakness, bad taste in mouth, sweating, palpitation, constipation, alopecia, oedema of an arm, backache, irritability [2] [%]","Other reported AEs: vomiting; abdominal discomfort possibly associated with anorexia, diarrhea, drowsiness, dizziness and headache [2]"
"O=C(Nc1ccc([N+](=O)[O-])cc1Cl)c1cc(Cl)ccc1O [ethanolamine salt, 5-chloro-salicyl-(2-chloro-4-nitro) anilide 2-aminoethanol salt]",180 to 280,–,–,–,–,–,–
"O=C(Nc1ccc([N+](=O)[O-])cc1Cl)c1cc(Cl)ccc1O [Niclosamide, 5-chloro-N-(2-chloro-4-nitrophenyl)-2-hydroxybenzamide]",–,low,soluble,sparingly soluble,5 to 8,< 1,1-4 % of patients
